Tests used:
[1] = cited from earlier work
whole blood = experiment: PT assay on sensor with SBQ-PVA immobilized substrate, heparin-spiked whole blood
Method: FIGS. 10 and 11 exemplify this concept as follows. A coagulation sensor was directly printed either with a large (FIG. 10) or small (FIG. 11) SBQ-PVA immobilized coagulation substrate. Subsequently, a PT coagulation activator was printed on top of the immobilized substrate matrix. These sensors were then tested with appropriate fluids to assess coagulation time. As with the results from FIGS. 5 and 6, one benefit of printing more of the immobilized substrate matrix is that the increased amount of immobilized substrate matrix led to an increase in pA. Also, when heparin is spiked into the whole blood sample, the clotting times are not as extended as they are expected to be (FIGS. 10 and 11 (response curves 181) (heparin spike) should be more similar to response curves 182 (abnormally long control fluid) clotting times, but are actually behaving more like whole blood without heparin, (response curves 183)). […] Further, applying a larger amount of the immobilizing matrix results in a greater neutralizing effect (e.g., compare the bias between whole blood and whole blood with heparin in FIGS. 10 and 11). […] In both FIGS. 10 and 11, the heparin spiked blood behaves more like unaltered whole blood than it does like an abnormally long control fluid, reflecting that there is an interferent/heparin neutralizing effect.

Compound	solubility in methanol [1]	extension of PT clotting time versus whole blood (whole blood; heparin 1 IU/mL, smaller print amount of SBQ-PVA neutralizing matrix (FIG. 11))	extension of PT clotting time versus whole blood (whole blood; heparin added to 1 IU/mL, large SBQ-PVA matrix print (FIG. 10))
O=c1oc2c(O)c(O)cc3c(=O)oc4c(O)c(O)cc1c4c23 [ellagic acid]	slightly soluble		
heparin		55%	14%

— patent US10746749B2, “Ellagic acid formulations for use in coagulation assays” (Abbott Point of Care Inc., priority 2014, dated 2020)
